This is an account of results in patent publication US5472958A, “2-((nitro)phenoxymethyl) heterocyclic compounds that enhance cognitive function” (Abbott Laboratories, priority 1994, dated 1995).

Data set [1] concerns the target neuronal nicotinic cholinergic channel receptor. The data set is described as follows: [3H]-cytisine binding to neuronal nicotinic cholinergic channel receptors, crude synaptic membranes from whole rat brain. As to the method: Binding of [^3 H]-cytisine ([^3 H]-CYT) to nicotinic receptors was accomplished using crude synaptic membrane preparations from whole rat brain (Pabreza et al., Molecular Pharmacol., 1990, 39:9). Washed membranes were stored at -80° C. prior to use. Frozen aliquots were slowly thawed and resuspended in 20 volumes of buffer (containing: 120 mM NaCl, 5 mM KCl, 2 mM MgCl2, 2 mM CaCl2 and 50 mM Tris-Cl, pH 7.4 @4° C.). After centrifuging at 20,000×g for 15 minutes, the pellets were resuspended in 30 volumes of buffer. Homogenate (containing 125-150 μg protein) was added to triplicate tubes containing concentrations of test compound and [^3 H]-CYT (1.25 nM) in a final volume of 500 μL. Samples were incubated for 60 minutes at 4° C., then rapidly filtered through Whatman GF/B filters presoaked in 0.5% polyethylimine using 3×4 mL of ice-cold buffer. The filters are counted in 4 mL of Ecolume® (ICN).

Data set [2] has as its system CD1 mice. The data set is described as follows: Elevated plus-maze, mouse (anxiolytic activity). It is filed as in vivo. The settings on record: for Mouse EPM, improvement in performance at the dose range tested: doses in brackets, time in open arms, 5 min test. From the text: (§1) The elevated plus-maze is a conflict test that probes anxiolytic activity of test compounds (Lister, Psychopharmacology, 1987, 92:180). It is based on the fact that exposure of an animal to an elevated open arm leads to an avoidance response considerably stronger than that evoked by exposure to an enclosed arm.
The apparatus required to perform this test in mice is made of plywood and consists of two open arms (17×8 cm) and two enclosed arms (17×8×15 cm) extending from a central platform (8×8 cm). It is mounted on a plywood base rising 39 cm above the floor. Mice are released on the central platform and the time spent in the open and enclosed arms is recorded during a 5 minute test period. The test compounds were administered to CD1 mice 15 minutes before the test.

Data set [3] relates to male Wistar rats. The data set is described as follows: Elevated plus-maze, rat (anxiolytic activity). The settings on record: doses in brackets; time in open arms. The class given is in vivo.
Source text: as §1
The same protocol was applied in rats (male Wistar strain), but a larger maze was used (open arms 50×10 cm, enclosed arms 50×10×40 cm) raised 50 cm above the floor.

Data set [4] deals with Male CD-1 mice. Nature of the data set: Analgesia testing, automated hot-plate (55° C.). It is filed as in vivo, mouse. Conditions: latency to tenth jump; morphine at 12, Example 3 at 19 umol/kg. As to the method: Analgesia was measured using an automated hot-plate analgesia monitor (model #AHP16AN, Omnitech Electronics, Inc., Columbus, Ohio). The temperature of the hot-plate was maintained at 55° C. Male CD-1 mice (Charles River, Portage, Mich.) weighing 30 to 35 g were used for all testing. Mice were placed on the hot-plate and the latency to jump (i.e., first 10 jumps) was recorded. Mice were removed from the apparatus either after ten jumps were made or a maximally-allowed time of 240 sec elapsed, whichever occurred first. The design of the apparatus allowed for testing of several animals (e.g., 8) at once. The latency (sec) until the tenth jump was used for statistical analysis. Data (Table 2) were statistically evaluated with ANOVA (StatView II™ program, Abacus Concepts, Inc., Berkeley, Calif.) and compared to the reference standard analgesic morphine.

In data set [5] the test system is cardiac muscarinic receptors. The settings on record: cited from earlier work.
The subject of data set [6] is cortical muscarinic receptors. Conditions: cited from earlier work.
The conditions of data set [7]: cited from earlier work.
In data set [8] the test system is nicotinic receptors. The settings on record: chronic nicotine administration; cited from earlier work.
Data set [9] has as its system rats. Conditions: acutely- and chronically-administered, rats incl. aged; cited from earlier work.
The test system of data set [10] is cigarette smokers. Conditions: double-blind studies; cited from earlier work.
The conditions of data set [11]: in vivo; cited from earlier work.
The subject of data set [12] is parietotemporal cortex. The settings on record: parietotemporal cortex of humans; cited from earlier work.
[13] abbreviates: [3H]-cytisine (1.25 nM), whole rat brain membranes, 4° C., 60 min.

Where a name gives a salt, the structure may show the parent alone. Read-outs that look alike come from different tables or passages of the source.

What is called Ki is a measure of affinity in units of concentration, obtained from inhibition or displacement. Lower therefore signals a stronger hold on the target. Compound `CN1CCCC1c1cccnc1` (single isomer, unassigned; (-)) [(-)-nicotine, reference compound] had an inhibition constant (Ki) in data set [1] of […]. The “Increase in time spent in the open arms of the maze vs saline” value in data set [2] (0.62 and 1.9 μmol/kg, p<0.05, 15 minutes before test) was “significant increase”. Also, the “Mouse EPM, improvement in performance at the dose range tested” value in [2] was “significant [0.19-0.62]”. Besides, the “Rat EPM, improvement in performance at the dose range tested” value in [3] is “significant [1.9]”.

With `CN1CCC[C@H]1COc1cccc(F)c1` [Example 6, 2(S)-(3-Fluorophenoxymethyl)-1-methyl-pyrrolidine hydrochloride], the inhibition constant Ki in [1] (setting [13]) came out at 5.1 nM.

Consider `CC(=O)Nc1cccc(OC[C@@H]2CCCN2)c1` [Example 17, (S)-2-(3-(acetamido)phenoxymethyl)pyrrolidine hydrochloride], for which the inhibition constant (Ki) in [1] (setting [13]) amounted to 142 nM.

Take `Cl.O=[N+]([O-])c1cccc(OC[C@H]2CCCN2)c1` [Example 3, 2(R)-(3-(nitro)phenoxymethyl)pyrrolidine hydrochloride]: in data set [1] (setting [13]), the affinity, expressed as Ki, was 2.5 nM. Moreover, the “Percent change from saline” value in data set [4] is recorded as 60.7%.

In the case of `O=[N+]([O-])c1cccc(OC[C@@H]2CCN2)c1` [Example 22, 2(S)-(3-(nitro)phenoxymethyl)azetidine methanesulfonate], in [1] (setting [13]), the Ki was 6.8 nM.

On to `CN1CCC[C@@H]1COc1cccc(F)c1` [Example 10, 2(R)-(3-Fluorophenoxymethyl)-1-methylpyrrolidine hydrochloride], for which the affinity in data set [1] (setting [13]), expressed as Ki, was 90.7 nM.

Compound `c1ccc(OC[C@@H]2CCCN2)cc1` [Example 21, 2(S)-(phenoxymethyl)pyrrolidine hydrochloride] yielded a Ki in data set [1] (setting [13]) of 108 nM.

The compound `CN1CCC[C@H]1COc1ccc(F)c(F)c1` [Example 14, 2(S)-(3,4-Difluorophenoxymethyl)-1-methylpyrrolidine hydrochloride] registered an inhibition constant Ki in [1] (setting [13]) of 18 nM.

In [1] (setting [13]), `CN1CCC[C@H]1COc1cc(F)cc(F)c1` [Example 8, 2(S)-(3,5-Difluorophenoxymethyl)-1-methyl-pyrrolidine hydrochloride] displayed a Ki of 15.7 nM.

As to `CN1CCC[C@H]1COc1cccc(F)c1F` [Example 12, 2(S)-(2,3-Difluorophenoxymethyl)-1-methylpyrrolidine hydrochloride], affinity in data set [1] (setting [13]) was put at a Ki of 81.4 nM.

Regarding `Fc1cccc(OC[C@@H]2CCCN2)c1F` [Example 11, 2(S)-(2,3-Difluorophenoxymethyl)pyrrolidine hydrochloride], the inhibition constant (Ki) in data set [1] (setting [13]) was found to be 74.3 nM.

For the compound `Fc1ccc(OC[C@@H]2CCCN2)cc1F` [Example 13, 2(S)-(3,4-Difluorophenoxymethyl)pyrrolidine hydrochloride], the inhibition constant Ki in [1] (setting [13]) worked out at 17.5 nM.

`CN1CC[C@@H]1COc1cccc([N+](=O)[O-])c1` [Example 23, (R)-1-methyl-2-(3-(nitro)phenoxymethyl)azetidine hydrochloride] displayed a Ki in data set [1] (setting [13]) of 29 nM.

In the case of `N#Cc1cccc(OC[C@@H]2CCCN2)c1` [Example 18, (S)-2-(3-cyanophenoxymethyl)pyrrolidine hydrochloride], the inhibition constant Ki in [1] (setting [13]) was 18 nM.

In turn, `CN1CCC[C@H]1COc1cccc([N+](=O)[O-])c1` [Example 2, 1-Methyl-2(S)-(3-(nitro)phenoxymethyl)pyrrolidine hydrochloride] came in with a Ki in data set [1] (setting [13]) of 9 nM.

Compound `CN1CCC[C@@H]1COc1cccc([N+](=O)[O-])c1` [Example 4, (R)-1-Methyl-2-(3-(nitro)phenoxymethyl)pyrrolidine] yielded a Ki in data set [1] (setting [13]) of 132 nM.

`Fc1cccc(OC[C@H]2CCCN2)c1` [Example 9, 2(R)-(3-Fluorophenoxymethyl)-pyrrolidine hydrochloride]: in data set [1] (setting [13]), the inhibition constant Ki was determined as 11.6 nM.

Take `CN1CC[C@]23c4c5ccc(O)c4O[C@H]2[C@@H](O)C=C[C@H]3[C@H]1C5` [Morphine, reference compound]: in data set [4], the “Percent change from saline” value was 257%.

Compound `CN1CCC[C@H]1COc1ccc(Cl)c(Cl)c1` [Example 16, 2(S)-(3,4-Dichlorophenoxymethyl)-1-methylpyrrolidine hydrochloride] gave a Ki in data set [1] (setting [13]) of 112 nM.

Take `CCN1C(=O)CC2(CCN(C)CC2)C1=O` [RS-86]: the “Agonism at cardiac muscarinic receptors” value in [5] is reported as “full agonist”. In data set [6], the “Agonism at cortical muscarinic receptors” value is listed as “partial agonist”; the “Potency and selectivity for CNS receptors” value is “poor potency and lack of selectivity for CNS receptors”.

`CN1CCC[C@H]1COc1cccc(Cl)c1` [Example 15, 2(S)-(3-Chlorophenoxymethyl)-1-methylpyrrolidine hydrochloride]: the Ki in data set [1] (setting [13]) turned out to be 37.7 nM.

Take `Cl.O=[N+]([O-])c1cccc(OC[C@@H]2CCCN2)c1` [Example 1, 2(S)-(3-(Nitro)phenoxymethyl)pyrrolidine hydrochloride]: the affinity in data set [1] (setting [13]) corresponds to a Ki of 2.9 nM. Moreover, the “Mouse EPM, improvement in performance at the dose range tested” value in data set [2] is “significant [0.62-1.9]”. Besides, the “Rat EPM, improvement in performance at the dose range tested” value in data set [3] is “significant [0.19, 6.2]”.

Compound `CN1CCC[C@H]1COc1cccc(C#N)c1` [Example 19, (S)-2-(3-cyanophenoxymethyl)-1-methylpyrrolidine hydrochloride] came in with a Ki in [1] (setting [13]) of 64 nM.

For `Fc1cccc(OC[C@@H]2CCCN2)c1` [Example 5, 2(S)-(3-Fluorophenoxymethyl)-pyrrolidine hydrochloride], in data set [1] (setting [13]), the inhibitory constant (Ki) was 17.2 nM.

With `Fc1cc(F)cc(OC[C@@H]2CCCN2)c1` [Example 7, 2(S)-(3,5-Difluorophenoxymethyl)pyrrolidine hydrochloride], the Ki in data set [1] (setting [13]) was 22.3 nM.

On to `CN1CCC[C@H]1c1cccnc1` [nicotine], for which the Oral bioavailability result in data set [7] is “poor oral bioavailability”. Besides, the “Up-regulation of the number of receptors” value in data set [8] is listed as 50-100%. The “Effect on cognitive function” value in [9] is “enhances cognitive function in rats”. The “Suppressing or preventing signs and symptoms of withdrawal vs placebo” value in data set [10] was “far superior to a placebo”. The Anxiolytic properties entry in data set [11] is “anxiolytic properties”.

Turning to `CNC1(C)C2CCC(C2)C1(C)C` (stereo not drawn) [mecamylamine], the “Effect on resting cortical perfusion” value in data set [12] was “reduces resting cortical perfusion”.
